Measurements reported in patent US20210222123A1, “IN VITRO EXPANSION OF DOPAMINERGIC SUBTYPE NEURONAL PROGENITORS DERIVED FROM PLURIPOTENT STEM CELLS” (Wisconsin Alumni Research Foundation, priority 2019, published 2021).
Read-outs that look alike come from different tables or passages of the source.

Tests used:
DA NPCs [1] = experiment: DA NPC identity by immunostaining of DA marker co-expression; assay type: cell-based, human
Description: Immunostaining and Quantification: Cells on coverslips/wells were rinsed with PBS and fixed in 4% paraformaldehyde for 20 minutes. After rinsing with PBS twice, cells were treated with 0.3% Triton for 10 min followed by 10% donkey serum for 1 hour before incubating with primary antibodies overnight at 4° C. Cells were then incubated for 1 hour at room temperature with fluorescently-conjugated secondary antibodies (Life Technologies). The nuclei were stained with Hoechst (Ho) (Sigma-Aldrich). Images were taken with a Nikon A1R-Si laser-scanning confocal microscope (Nikon, Tokyo, Japan). The primary antibodies used include the followings: Goat anti-OTX2 (1:1000, R&D), Rabbit anti-LMX1A (1:500, Abcam), […], Goat anti-FOXA2 (1:500, Santa Cruz), Mouse anti-EN1 (1:200, 4G11-C, DSHB), Rat anti-Corin (1:100, R&D Systems), Rabbit anti-TH (1:500, Pel-Freez Biologicals), Mouse anti-TUJ1 (1:500, Santa Cruz Biotechnology), Mouse anti-MAP2 (1:200, Sigma-Aldrich), Rabbit anti-GIRK2 (1:80, Alomone Labs), Rabbit anti-SOX6 (1:1000, Sigma-Aldrich), Mouse anti-Stem121 (1:500, Clonetech). For quantifying DA NPC populations, cells were counted among the total Hoechst labeled nuclei. Three independent cultures (n=3) were analyzed.

DA NPCs [2] = assay type: cell-based
Excerpt: FGF8 and SHH are not sufficient for expanding DA NPCs: To determine if and how the DA NPCs can be expanded, a CKK8-based assay for quantifying cell numbers was first established. This assay was based on the absorbance readout from a plate reader to estimate the total cell number by monitoring mitochondrial activity, which was used for primary screening/testing for candidate molecules and validating the hits (FIG. 2A).
The optimal seeding density was first determined by plating increasing numbers of DA NPCs to each well. […] The absorbance reached a plateau when the seeding density was beyond 120,000 cell/well (FIG. 2B), and 20,000 cells/well were used for subsequent assays. Using this optimal seeding density (20,000/well), well-to-well and plate-to-plate variation (FIG. 2C) was examined. There were no obvious well-to-well and plate-to-plate variations (FIG. 2C).
Chemical screening identifies an additional compound that expands DA NPCs: The chemical screening platform was set up using FGF8+SHH as a basal condition, FGF8+SHH+DMSO as a control, and FGF8+SHH+1 as the screening mode. With the standardized screening platform (FIG. 3A), 1,200 small molecules (Tocris Total) were screened and the top 5 candidate compounds that increased the absorbance by >2 folds over the median absorbance (FIG. 3B) were identified. […] induced a 5-fold expansion on top of FGF8+SHH (FIG. 3D). We referred to it as the “FSW” cocktail.
Generation and expansion of DA NPCs: DA NPCs were generated as previously described, in particular FGF8b was added from Day 9 (Chen et al., 2016; Xi et al., 2012) (FIG. 1A). The generated DA NPCs were passaged at 10^6 cells/well on a MATRIGEL™ (1:30; PBS diluted and store in 4° C. for use in 2 weeks) coated 6-well plate as the first passage. After overnight, incubation, the medium was switched to the FSCW cocktail in the expansion medium. FSCW cocktail contained FGF8b (50 ng/ml; Peprotech), SHH (25 ng/ml; Peprotech), CHIR (0.6 μM; Tocris) and WNT-C59 (0.5 μM: Tocris). The expansion medium consisted of DF12 basal medium (ThermoFisher), B27 (100×; ThermoFisher), Glutamax (100×; ThermoFisher) and NEAA (100×; ThermoFisher). The cells were passaged every 5 days at the ratio of 1:3. To digest the cells, the cultures were incubated in PBS-diluted EDTA (1:100; Thermo) at 37° C. for 5 minutes before lifting the cells by adding 2 ml DF12 basal medium using cell lifter (Coring) and collecting the cells into a centrifuge tube. Following centrifugation at 1000 rpm for 2 minutes and removal of the supernatant, the cells were resuspended in the expansion medium with FSCW cocktail and seeded onto the coated plates as described above. Y27632 (10 uM; Tocris) was added overnight to improve cell survival.

[3] = FGF2 alone, 10 to 200 ng/ml, one passage in 5 days

`Cc1c[nH]c(-c2cnc(NCCNc3ccc(C#N)cn3)nc2-c2ccc(Cl)cc2Cl)n1` [CHIR, CHIR99021] was tested, and the “dose window in which DA NPC identity (co-expression of LMX1A and OTX2) was retained” value (DA NPCs [1]; CHIR alone) was 0.6 µM, the DA identity (DA NPCs [1]; CHIR alone, concentrations lower or higher than 0.6 μM) was “loss of DA identity” and the “cellular identity of DA NPCs” value (DA NPCs [1]; CHIR at a low dose (0.6 μM)) was “did not alter their cellular identity”. For the same molecule, the “expansion of DA NPCs” value (DA NPCs [2]; CHIR alone, range of doses) was “expanded the DA NPCs” and the “expansion of DA NPCs” value (DA NPCs [2]; CHIR at a low dose (0.6 μM)) was “expanded the DA NPCs”.
In the case of `Cc1cc(-c2ccc(CC(=O)Nc3ccc(-c4cccnc4)cc3)cc2)ccn1` [WNT-C59], the “DA identity after induced expansion (co-expression of LMX1A and OTX2)” value (DA NPCs [1]; on top of FGF8+SHH, 1 passage, 5 days, ratio 1:3) is reported as “maintained DA identity”, the “expansion on top of FGF8+SHH” value (DA NPCs [2]; WNT-C59 "At 2" (unit not given), FSW cocktail) is reported as 5 fold and the “concentration of maximum effect in the cocktail” value (DA NPCs [2]; WNT-C59 titration in FSCW cocktail) is reported as 0.5 µM.
With “FGF2: growth factor reported for expanding pan-NPCs or specified NPCs” the “DA NPC identity (co-expression of LMX1A and OTX2)” value (DA NPCs [1]; [3]) was “loss of co-expression of LMX1A and OTX2” and the cell proliferation (DA NPCs [2]; [3]) was “induced dramatic cell proliferation”.
